In PubChem BioAssay (NCI):
Several values for one entry are separate records, joined by “and”; a condition that tells them apart may be missing. Equal values may be shown once.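 Interpolation was linear, between the two tested concentrations surrounding the appropriate level; five concentrations were tested over 48 hours in 96-well plates. GI50 is the concentration that inhibits growth by half. TGI: concentration producing complete growth inhibition.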

Experiments:
Experiment in all cases: DTP human tumour cell line panel, 48 h; in the data active = GI50 below about 0.43 µM; inactive = the rest
HT29 colon = test system: HT29 colon
T-47D breast = test system: T-47D breast
MDA-MB-231 breast = test system: MDA-MB-231 breast
NCI-H522 lung = test system: NCI-H522 lung
RPMI-8226 leukemia = test system: RPMI-8226 leukemia
SW-620 colon = test system: SW-620 colon
ACHN renal = test system: ACHN renal
HS 578T breast = test system: HS 578T breast
SK-MEL-28 melanoma = test system: SK-MEL-28 melanoma
COLO 205 colon = test system: COLO 205 colon
HOP-92 NSCLC = test system: HOP-92 NSCLC
M14 melanoma = test system: M14 melanoma
K-562 leukemia = test system: K-562 leukemia
SK-MEL-5 melanoma = test system: SK-MEL-5 melanoma
IGROV1 ovarian = test system: IGROV1 ovarian
TK-10 renal = test system: TK-10 renal
MDA-MB-435 = test system: MDA-MB-435
NCI-H226 lung = test system: NCI-H226 lung
786-0 renal = test system: 786-0 renal
OVCAR-5 ovarian = test system: OVCAR-5 ovarian
CAKI-1 renal = test system: CAKI-1 renal
HCC-2998 colon = test system: HCC-2998 colon
PC-3 prostate = test system: PC-3 prostate
OVCAR-4 ovarian = test system: OVCAR-4 ovarian
HCT-116 colon = test system: HCT-116 colon
BT-549 breast = test system: BT-549 breast
SK-OV-3 ovarian = test system: SK-OV-3 ovarian
SF-295 CNS = test system: SF-295 CNS
SR leukemia = test system: SR leukemia
NCI/ADR-RES ovarian = test system: NCI/ADR-RES ovarian
SNB-19 CNS = test system: SNB-19 CNS
EKVX NSCLC = test system: EKVX NSCLC
RXF 393 renal = test system: RXF 393 renal
HL-60(TB) leukemia = test system: HL-60(TB) leukemia
SN12C renal = test system: SN12C renal
HCT-15 colon = test system: HCT-15 colon
SF-268 CNS = test system: SF-268 CNS
SK-MEL-2 melanoma = test system: SK-MEL-2 melanoma
MCF7 breast = test system: MCF7 breast
U251 CNS = test system: U251 CNS
OVCAR-3 ovarian = test system: OVCAR-3 ovarian
UACC-62 melanoma = test system: UACC-62 melanoma
MDA-N = test system: MDA-N
MALME-3M melanoma = test system: MALME-3M melanoma
HOP-62 NSCLC = test system: HOP-62 NSCLC
CCRF-CEM leukemia = test system: CCRF-CEM leukemia
NCI-H460 lung = test system: NCI-H460 lung
DU-145 prostate = test system: DU-145 prostate
LOX IMVI melanoma = test system: LOX IMVI melanoma
SNB-75 CNS = test system: SNB-75 CNS
UACC-257 melanoma = test system: UACC-257 melanoma
MOLT-4 leukemia = test system: MOLT-4 leukemia
UO-31 renal = test system: UO-31 renal
OVCAR-8 ovarian = test system: OVCAR-8 ovarian
SF-539 CNS = test system: SF-539 CNS
A549 NSCLC = test system: A549 NSCLC
KM12 colon = test system: KM12 colon
A498 renal = test system: A498 renal
NCI-H23 lung = test system: NCI-H23 lung

COc1ccc(-c2c3c(n(C4OC(COC(C)=O)C(OC(C)=O)C(OC(C)=O)C4OC(C)=O)c(=S)c2C#N)CC(C)(C)CC3=O)cc1 (stereo not given)
74.7 µM and > 100 µM: TGI (SR leukemia)
> 100 µM: TGI (HT29 colon) | TGI (T-47D breast) | TGI (MDA-MB-231 breast) | TGI (NCI-H522 lung) | TGI (SW-620 colon) | TGI (ACHN renal) | TGI (HS 578T breast) | TGI (SK-MEL-28 melanoma) | TGI (COLO 205 colon) | TGI (HOP-92 NSCLC) | TGI (M14 melanoma) | TGI (IGROV1 ovarian) | TGI (TK-10 renal) | TGI (NCI-H226 lung) | TGI (786-0 renal) | TGI (OVCAR-5 ovarian) | TGI (CAKI-1 renal) | TGI (HCC-2998 colon) | TGI (PC-3 prostate) | TGI (OVCAR-4 ovarian) | TGI (HCT-116 colon) | TGI (SK-OV-3 ovarian) | TGI (SF-295 CNS) | TGI (NCI/ADR-RES ovarian) | TGI (SNB-19 CNS) | TGI (SN12C renal) | TGI (HCT-15 colon) | TGI (SF-268 CNS) | TGI (MCF7 breast) | TGI (U251 CNS) | TGI (OVCAR-3 ovarian) | TGI (UACC-62 melanoma) | TGI (MDA-N) | TGI (MALME-3M melanoma) | TGI (HOP-62 NSCLC) | TGI (NCI-H460 lung) | TGI (DU-145 prostate) | TGI (UACC-257 melanoma) | TGI (UO-31 renal) | TGI (A549 NSCLC) | TGI (KM12 colon) | TGI (A498 renal) | TGI (NCI-H23 lung)
39.9 µM and > 100 µM: TGI (K-562 leukemia)
42.5 µM and > 100 µM: TGI (HL-60(TB) leukemia)
97.5 µM and 77.2 µM: TGI (LOX IMVI melanoma)
58.6 µM and > 100 µM: TGI (SF-539 CNS)
inactive: GI50 (ACHN renal) 46.2 µM and > 100 µM | GI50 (SK-MEL-28 melanoma) 42 µM and > 100 µM | GI50 (HOP-92 NSCLC) 32.7 µM and > 100 µM | GI50 (M14 melanoma) 49.7 µM and > 100 µM | GI50 (K-562 leukemia) 18.2 µM and 47.5 µM | GI50 (SK-MEL-5 melanoma) 23.1 µM and 61.1 µM | GI50 (TK-10 renal) 39.5 µM and > 100 µM | GI50 (MDA-MB-435) 22.5 µM and 71.7 µM | GI50 (786-0 renal) 36.3 µM and > 100 µM | GI50 (OVCAR-4 ovarian) 45.4 µM and > 100 µM | GI50 (HCT-116 colon) 41.8 µM and > 100 µM | GI50 (NCI/ADR-RES ovarian) 41.6 µM and > 100 µM | GI50 (RXF 393 renal) 20.2 µM and > 100 µM | GI50 (HL-60(TB) leukemia) 18.4 µM and 47.6 µM | GI50 (HCT-15 colon) 40.7 µM and > 100 µM | GI50 (SF-268 CNS) 38.9 µM and > 100 µM | GI50 (SK-MEL-2 melanoma) 26.3 µM and > 100 µM | GI50 (U251 CNS) 34.9 µM and > 100 µM | GI50 (OVCAR-3 ovarian) 40.5 µM and 88.7 µM | GI50 (CCRF-CEM leukemia) 21.5 µM and 71.7 µM | GI50 (DU-145 prostate) 46.8 µM and > 100 µM | GI50 (SNB-75 CNS) 25 µM and 67.8 µM | GI50 (UACC-257 melanoma) 27.9 µM and > 100 µM | GI50 (OVCAR-8 ovarian) 22.1 µM and > 100 µM | GI50 (A498 renal) 42.1 µM and > 100 µM | GI50 (NCI-H23 lung) 39.9 µM and > 100 µM
72.1 µM and > 100 µM: TGI (RPMI-8226 leukemia)
76.4 µM and > 100 µM: TGI (SK-MEL-2 melanoma)
97.5 µM: TGI (EKVX NSCLC)
65.6 µM and > 100 µM: TGI (MDA-MB-435)
57.1 µM and > 100 µM: TGI (MOLT-4 leukemia)
97.9 µM and > 100 µM: TGI (SNB-75 CNS)
93.3 µM and > 100 µM: TGI (BT-549 breast)
57.2 µM and > 100 µM: TGI (CCRF-CEM leukemia)
71.8 µM and > 100 µM: TGI (RXF 393 renal)
75.4 µM and > 100 µM: TGI (OVCAR-8 ovarian)
75.7 µM and > 100 µM: TGI (SK-MEL-5 melanoma)
